The values below come from ChEMBL document CHEMBL5316337, “Critical Role of Position 10 Residue in the Polymyxin Antimicrobial Activity” (J Med Chem, 2023).

As a reminder, the MIC is the smallest concentration in the dilution series that meets the test's criterion for growth inhibition.

Assay type in all cases: functional
Test [1] deals with Acinetobacter baumannii. The test can be described thus: Antibacterial activity against Carbapenem-resistant Acinetobacter baumannii FADD1-AB030 clinical isolates assessed as reduction in bacterial growth by broth microdilution method. (In general: Broth dilution looks for growth in wells or tubes with falling amounts of substance.)
Test [2] has as its system Klebsiella pneumoniae. The experiment in a line: Antibacterial activity against Carbapenem-resistant Klebsiella pneumoniae FADD1-KP032 clinical isolates assessed as reduction in bacterial growth by broth microdilution method.
For test [3], the system named is Klebsiella pneumoniae. The experiment in a line: Antibacterial activity against Carbapenem-resistant Klebsiella pneumoniae BM1 clinical isolates assessed as reduction in bacterial growth by broth microdilution method.
Test [4] deals with Acinetobacter baumannii. The experiment in a line: Antibacterial activity against Carbapenem-resistant Acinetobacter baumannii FADD1-AB034 clinical isolates assessed as reduction in bacterial growth by broth microdilution method.
The test system of test [5] is Enterobacter cloacae. The test can be described thus: Antibacterial activity against polymyxin-susceptible Enterobacter cloacae FADD1-EC003 clinical isolates assessed as reduction in bacterial growth by broth microdilution method.
Test [6] has as its system Pseudomonas aeruginosa. The experiment in a line: Antibacterial activity against polymyxin-susceptible Pseudomonas aeruginosa FADD1-PA038 clinical isolates assessed as reduction in bacterial growth by broth microdilution method.
Test [7] deals with Klebsiella pneumoniae. The test can be described thus: Antibacterial activity against Carbapenem-resistant Klebsiella pneumoniae FADD1-KP022 clinical isolates assessed as reduction in bacterial growth by broth microdilution method.
For test [8], the system named is Enterobacter cloacae. The experiment in a line: Antibacterial activity against polymyxin-susceptible Enterobacter cloacae FADD1-EC001 clinical isolates assessed as reduction in bacterial growth by broth microdilution method.
For test [9], the system named is Acinetobacter baumannii. The test can be described thus: Antibacterial activity against polymyxin-susceptible Acinetobacter baumannii ATCC 19606 clinical isolates assessed as reduction in bacterial growth by broth microdilution method.
Test [10] relates to Pseudomonas aeruginosa. The experiment in a line: Antibacterial activity against Carbapenem-resistant Pseudomonas aeruginosa FADD1-PA001 clinical isolates assessed as reduction in bacterial growth by broth microdilution method.
Test [11] relates to Enterobacter cloacae. The experiment in a line: Antibacterial activity against polymyxin-susceptible Enterobacter cloacae FADD1-EC006 clinical isolates assessed as reduction in bacterial growth by broth microdilution method.
For test [12], the system named is Pseudomonas aeruginosa. The test can be described thus: Antibacterial activity against polymyxin-susceptible Pseudomonas aeruginosa ATCC 27853 clinical isolates assessed as reduction in bacterial growth by broth microdilution method.
For test [13], the system named is Klebsiella pneumoniae. The experiment in a line: Antibacterial activity against polymyxin-susceptible Klebsiella pneumoniae ATCC 700721 clinical isolates assessed as reduction in bacterial growth by broth microdilution method.
The test system of test [14] is Klebsiella pneumoniae. The experiment in a line: Antibacterial activity against Carbapenem-resistant Klebsiella pneumoniae FADD1-KP065 clinical isolates assessed as reduction in bacterial growth by broth microdilution method.
Test [15] concerns Pseudomonas aeruginosa. The test can be described thus: Antibacterial activity against polymyxin-susceptible Pseudomonas aeruginosa FADD1-PA025 clinical isolates assessed as reduction in bacterial growth by broth microdilution method.
Test [16] deals with Acinetobacter baumannii. The test can be described thus: Antibacterial activity against polymyxin-susceptible Acinetobacter baumannii ATCC 17978 clinical isolates assessed as reduction in bacterial growth by broth microdilution method.
For test [17], the system named is Pseudomonas aeruginosa. The experiment in a line: Antibacterial activity against Carbapenem-resistant Pseudomonas aeruginosa FADD1-PA022 clinical isolates assessed as reduction in bacterial growth by broth microdilution method.

Structures are written as SMILES. Converted amounts (≈) assume the structure as drawn.

In the case of `CC[C@H](C)CCCCC(=O)N[C@@H](CCN)C(=O)N[C@H](C(=O)N[C@@H](CCN)C(=O)N[C@H]1CCNC(=O)[C@H](Cc2ccc(O)cc2)NC(=O)[C@H](CCN)NC(=O)[C@H](CCN)NC(=O)[C@H](CC(C)C)NC(=O)[C@@H](Cc2ccccc2)NC(=O)[C@H](CCN)NC1=O)[C@@H](C)O`, the MIC amounted to 4 µg/mL (≈ 3.16 µM) with Acinetobacter baumannii [1]; 4 µg/mL (≈ 3.16 µM) in the test on Klebsiella pneumoniae [2]; 1 µg/mL (≈ 0.79 µM) with Klebsiella pneumoniae [3]; 2 µg/mL (≈ 1.58 µM) with Acinetobacter baumannii [4]; 8 µg/mL (≈ 6.32 µM) with Enterobacter cloacae [5]; 8 µg/mL (≈ 6.32 µM) with Pseudomonas aeruginosa [6]. The minimum inhibitory concentration (MIC) with Klebsiella pneumoniae [7] worked out at 0.5 µg/mL (≈ 0.395 µM); with Enterobacter cloacae [8] it was 16 µg/mL (≈ 12.6 µM); in the test with Acinetobacter baumannii [9], 2 µg/mL (≈ 1.58 µM); in the test with Pseudomonas aeruginosa [10], 4 µg/mL (≈ 3.16 µM); in the test with Enterobacter cloacae [11], 16 µg/mL (≈ 12.6 µM); in the test on Pseudomonas aeruginosa [12], 2 µg/mL (≈ 1.58 µM). Also, the MIC came out at 8 µg/mL (≈ 6.32 µM) with Klebsiella pneumoniae [13]; 4 µg/mL (≈ 3.16 µM) with Klebsiella pneumoniae [14]; 2 µg/mL (≈ 1.58 µM) with Pseudomonas aeruginosa [15]; 2 µg/mL (≈ 1.58 µM) in the test on Acinetobacter baumannii [16]; 1 µg/mL (≈ 0.79 µM) with Pseudomonas aeruginosa [17].

On to `C/C=C1/NC(=O)[C@H](CCN)NC(=O)[C@H](CCN)NC(=O)[C@H](CC(C)C)NC(=O)[C@@H](Cc2ccccc2)NC(=O)[C@H](CCN)NC(=O)[C@@H](NC(=O)[C@H](CCN)NC(=O)[C@@H](NC(=O)[C@H](CCN)NC(=O)CCCC[C@@H](C)CC)[C@@H](C)O)CCNC1=O`, for which the minimum inhibitory concentration (MIC) in the test with Acinetobacter baumannii [1] is 2 µg/mL (≈ 1.69 µM); in the test on Klebsiella pneumoniae [2] it was 8 µg/mL (≈ 6.75 µM); in the test with Klebsiella pneumoniae [3], 8 µg/mL (≈ 6.75 µM); in the test with Acinetobacter baumannii [4], 2 µg/mL (≈ 1.69 µM); in the test with Enterobacter cloacae [5] it was over 32 µg/mL; in the test on Pseudomonas aeruginosa [6] it was 16 µg/mL (≈ 13.5 µM). The MIC is 2 µg/mL (≈ 1.69 µM) in the test on Klebsiella pneumoniae [7]; over 32 µg/mL in the test on Enterobacter cloacae [8]; 4 µg/mL (≈ 3.37 µM) in the test with Acinetobacter baumannii [9]; 4 µg/mL (≈ 3.37 µM) in the test on Pseudomonas aeruginosa [10]; over 32 µg/mL in the test on Enterobacter cloacae [11]; 2 µg/mL (≈ 1.69 µM) in the test with Pseudomonas aeruginosa [12]. The MIC in the test with Klebsiella pneumoniae [13] was found to be 16 µg/mL (≈ 13.5 µM); in the test with Klebsiella pneumoniae [14], 4 µg/mL (≈ 3.37 µM); in the test with Pseudomonas aeruginosa [15] it was 2 µg/mL (≈ 1.69 µM); with Acinetobacter baumannii [16], 1 µg/mL (≈ 0.844 µM); with Pseudomonas aeruginosa [17] it was 1 µg/mL (≈ 0.844 µM).

For `CC[C@H](C)CCCCC(=O)N[C@@H](CCN)C(=O)N[C@H](C(=O)N[C@@H](CCN)C(=O)N[C@H]1CCNC(=O)[C@H](CCN)NC(=O)[C@H](CCN)NC(=O)[C@H](CCN)NC(=O)[C@H](CC(C)C)NC(=O)[C@@H](Cc2ccccc2)NC(=O)[C@H](CCN)NC1=O)[C@@H](C)O`, the MIC is 8 µg/mL (≈ 6.65 µM) with Acinetobacter baumannii [1]; 32 µg/mL (≈ 26.6 µM) in the test with Klebsiella pneumoniae [2]; over 32 µg/mL in the test with Klebsiella pneumoniae [3]; 16 µg/mL (≈ 13.3 µM) in the test on Acinetobacter baumannii [4]; over 32 µg/mL with Enterobacter cloacae [5]; over 32 µg/mL with Pseudomonas aeruginosa [6]. Also, the MIC with Klebsiella pneumoniae [7] was 2 µg/mL (≈ 1.66 µM); in the test on Enterobacter cloacae [8] it was over 32 µg/mL; in the test on Acinetobacter baumannii [9] it was 16 µg/mL (≈ 13.3 µM); in the test on Pseudomonas aeruginosa [10] it was over 32 µg/mL; in the test with Enterobacter cloacae [11] it was over 32 µg/mL; in the test with Pseudomonas aeruginosa [12] it was over 32 µg/mL. Further, the MIC in the test on Klebsiella pneumoniae [13] is over 32 µg/mL; with Klebsiella pneumoniae [14], 4 µg/mL (≈ 3.33 µM); with Pseudomonas aeruginosa [15] it was over 32 µg/mL; in the test on Acinetobacter baumannii [16], 16 µg/mL (≈ 13.3 µM); in the test on Pseudomonas aeruginosa [17], over 32 µg/mL.

Consider `CC[C@H](C)CCCCC(=O)N[C@@H](CCN)C(=O)N[C@H](C(=O)N[C@@H](CCN)C(=O)N[C@H]1CCNC(=O)[C@H](CN)NC(=O)[C@H](CCN)NC(=O)[C@H](CCN)NC(=O)[C@H](CC(C)C)NC(=O)[C@@H](Cc2ccccc2)NC(=O)[C@H](CCN)NC1=O)[C@@H](C)O`, for which the minimum inhibitory concentration (MIC) came out at 2 µg/mL (≈ 1.68 µM) in the test on Acinetobacter baumannii [1]; 2 µg/mL (≈ 1.68 µM) with Klebsiella pneumoniae [2]; 4 µg/mL (≈ 3.37 µM) in the test with Klebsiella pneumoniae [3]; 1 µg/mL (≈ 0.841 µM) in the test with Acinetobacter baumannii [4]; 4 µg/mL (≈ 3.37 µM) in the test with Enterobacter cloacae [5]; 4 µg/mL (≈ 3.37 µM) in the test with Pseudomonas aeruginosa [6]. Besides, the MIC with Klebsiella pneumoniae [7] amounted to 1 µg/mL (≈ 0.841 µM); in the test on Enterobacter cloacae [8], 2 µg/mL (≈ 1.68 µM); in the test on Acinetobacter baumannii [9], 2 µg/mL (≈ 1.68 µM); with Pseudomonas aeruginosa [10] it was 2 µg/mL (≈ 1.68 µM); in the test on Enterobacter cloacae [11], 16 µg/mL (≈ 13.5 µM); in the test with Pseudomonas aeruginosa [12] it was 4 µg/mL (≈ 3.37 µM). Besides, the MIC in the test with Klebsiella pneumoniae [13] was over 32 µg/mL; in the test with Klebsiella pneumoniae [14], 1 µg/mL (≈ 0.841 µM); with Pseudomonas aeruginosa [15] it was 2 µg/mL (≈ 1.68 µM); in the test on Acinetobacter baumannii [16], 1 µg/mL (≈ 0.841 µM); in the test with Pseudomonas aeruginosa [17], 0.5 µg/mL (≈ 0.421 µM).

`CC[C@H](C)CCCCC(=O)N[C@@H](CCN)C(=O)N[C@H](C(=O)N[C@@H](CCN)C(=O)N[C@H]1CCNC(=O)[C@H](Cc2ccccc2)NC(=O)[C@H](CCN)NC(=O)[C@H](CCN)NC(=O)[C@H](CC(C)C)NC(=O)[C@@H](Cc2ccccc2)NC(=O)[C@H](CCN)NC1=O)[C@@H](C)O`: the minimal inhibitory concentration (MIC) in the test on Acinetobacter baumannii [1] was found to be 0.5 µg/mL (≈ 0.4 µM); in the test on Klebsiella pneumoniae [2], 1 µg/mL (≈ 0.8 µM); in the test on Klebsiella pneumoniae [3], 2 µg/mL (≈ 1.6 µM); in the test with Acinetobacter baumannii [4], 2 µg/mL (≈ 1.6 µM); with Enterobacter cloacae [5] it was 4 µg/mL (≈ 3.2 µM); in the test on Pseudomonas aeruginosa [6], 4 µg/mL (≈ 3.2 µM). The MIC in the test on Klebsiella pneumoniae [7] was determined as 1 µg/mL (≈ 0.8 µM); with Enterobacter cloacae [8], 4 µg/mL (≈ 3.2 µM); in the test on Acinetobacter baumannii [9], 2 µg/mL (≈ 1.6 µM); with Pseudomonas aeruginosa [10] it was 1 µg/mL (≈ 0.8 µM); in the test with Enterobacter cloacae [11], 4 µg/mL (≈ 3.2 µM); in the test with Pseudomonas aeruginosa [12], 1 µg/mL (≈ 0.8 µM). Moreover, the MIC in the test on Klebsiella pneumoniae [13] was 2 µg/mL (≈ 1.6 µM); in the test with Klebsiella pneumoniae [14], 1 µg/mL (≈ 0.8 µM); with Pseudomonas aeruginosa [15] it was 2 µg/mL (≈ 1.6 µM); in the test on Acinetobacter baumannii [16] it was 2 µg/mL (≈ 1.6 µM); in the test on Pseudomonas aeruginosa [17], 1 µg/mL (≈ 0.8 µM).
